Molecular target: T1, FYN A (Homo sapiens, UniProt P06241)
T1 construct: purchased Thermo Fisher Scientific (Life Technologies) SelectScreen
Experiment: SelectScreen LanthaScreen
Assay type: binding
Settings: read-out: % displacement
Outline: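 NU5455 was profiled across the SelectScreen Broad panel of kinase activity and binding assays. Z'LYTE reactions such as CSF1R ran at apparent Km ATP, while the Adapta CAMK1 assay used ATP listed as 10. Values are given as percent.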

T1 sequence (P06241 whole entry): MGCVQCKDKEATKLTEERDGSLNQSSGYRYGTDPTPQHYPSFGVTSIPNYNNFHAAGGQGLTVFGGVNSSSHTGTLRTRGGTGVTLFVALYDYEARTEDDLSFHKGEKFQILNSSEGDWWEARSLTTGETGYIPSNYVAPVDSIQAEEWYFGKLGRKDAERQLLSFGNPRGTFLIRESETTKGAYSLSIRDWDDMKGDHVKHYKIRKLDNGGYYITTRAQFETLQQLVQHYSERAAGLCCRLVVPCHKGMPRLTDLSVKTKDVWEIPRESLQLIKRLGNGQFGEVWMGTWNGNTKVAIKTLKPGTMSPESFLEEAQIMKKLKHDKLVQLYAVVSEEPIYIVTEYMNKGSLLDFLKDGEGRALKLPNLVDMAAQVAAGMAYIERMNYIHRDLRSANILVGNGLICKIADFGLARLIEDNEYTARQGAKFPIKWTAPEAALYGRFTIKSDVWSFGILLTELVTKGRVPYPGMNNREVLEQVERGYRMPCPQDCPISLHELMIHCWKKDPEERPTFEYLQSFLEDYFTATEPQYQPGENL

CN(C(=O)CN1CCOCC1)c1ccc2sc3c(-c4cccc5c(=O)cc(N6CC7CCC(C6)O7)oc45)cccc3c2c1 [NU5455]
inhibition at 1 µM: 3.3%
